Reference: US20100196926A1, “Combined Method And Kit For The Sequential Measurement of (1) The Enzymatically Active Fraction And (2) The Total Amount Of An Enzyme” (UNIVERSITE DE LIEGE, priority 2007, published 2010)

Tested on: activated equine neutrophils
Experiment: Combined SIEFED-ELISA measurement of total and active MPO released by PMA-activated equine neutrophils pre-incubated with polyphenols
Type: cell-based, horse
Conditions: for inhibition percentage on total enzyme (MPO) release / inhibition percentage on MPO activity (active fraction of MPO released): 10^-5 M, neutrophils pre-incubated 10 min at 37° C., activated 30 min with 8×10^−7 M PMA, supernatant
Procedure: The primary antibody(2), that captures the enzyme (MPO 1), is a rabbit IgG (3 μg/ml). Standard enzyme (MPO) or unknown sample is incubated 2 h at 37° C. After washing, the (peroxidase) activity of the enzyme (MPO) is detected by adding 100 μl of a 10 μM H2O2 solution and 40 μM of Amplex® Red (8) (10-acetyl-3,7-dihydroxyphenoxazine; from Molecular Probes) in phosphate buffer (50 mM, pH 7.5). The fluorescence is read during 30 min (at 37° C.) at 590 nm with a Fluoroskan Ascent apparatus (Labsystems). The volumes of the primary antibody(2) and the sample put in the wells, are 200 μl. Controls (blank) and dilutions of the samples are established with dilution buffer.
Enhancement of fluorescence was obtained when adding a defined concentration of nitrites ions (about 10 mM) to the Amplex® Red solution (8). The fluorescence response obtained in this SIEFED steps (part) of the combined SIEFED-ELISA bioassay is directly proportional to the enzymatically active fraction of the enzyme (equine MPO) present in the sample.
After the SIEFED detection, a washing (0.9% NaCl solution containing 0.1% tween 20) is performed before starting the ELISA part of the combined method; the immobilized antibody(2)—antigen(1) complex is incubated (2 h, 37° C.) with an excess (5 μg/ml) of guinea pig IgG, the secondary antibody (4). After washing, a third antibody (5) produced against guinea pig IgG is added. This third IgG (5) (goat IgG) is labeled with alkaline phosphatase (6) and recognizes the “sandwich” complex “primary antibody (2)—MPO(1)—secondary antibody”(4). After washing, phosphatase activity is detected by incubation (30 min, 37° C., in the darkness) with a paranitrophenyl phosphate solution (phosphatase substrate, Sigma). The reaction is stopped with NaOH and the absorbance (405 nm) is measured with a Multiscan Ascent apparatus (Labsystem). All the volumes added into the wells comprise 100 μl, except for washing (300 μl) and for the substrate solution (200 μl). Controls (blank) and dilutions of the standard enzyme (MPO) and samples were established with dilution buffer [PBS (20 mM phosphate, 137 mM NaCl and 2.7 mM KCl pH 7.4) to which 5 g/L bovine serum albumin and 0.1% tween 20 were added].
Neutrophils isolated from citrated blood of healthy horses were counted, suspended in phosphate buffer saline (PBS) at pH 7.4 and incubated 10 min at 37° C. with curcumin or THC at the final concentration of 10^−4, 10^−5 or 10^−6 M. After incubation and centrifugation (1000×g, 10 min), the neutrophils were resuspended in PBS and activated 30 min with 8×10^−7 M phorbol myristate acetate (PMA) followed by centrifugation and active and total enzyme (MPO) measurement in the supernatant by the combined SIEFED-ELISA specific bioassay. The effects of polyphenols on total and active fraction of enzyme (MPO) released by stimulated neutrophils were studied by pre-incubation of neutrophils with the drugs at various concentrations, before the neutrophil stimulation.

| SMILES | inhibition percentage on total enzyme (MPO) release (ELISA part) [%] | inhibition percentage on MPO activity (active fraction of MPO released) (SIEFED part) [%] | effect on the total enzyme (MPO) released by activated neutrophils (10^−4, 10^−5 or 10^−6 M, PMA-activated equine neutrophils, ELISA part) | effect on the active fraction of the enzyme (MPO) released by activated neutrophils (10^−4, 10^−5 or 10^−6 M, PMA-activated equine neutrophils, SIEFED part) |
| --- | --- | --- | --- | --- |
| COc1cc(/C=C/C(=O)CC(=O)/C=C/c2ccc(O)c(OC)c2)ccc1O [curcumin, Curcumin] | 44 | 60 | dose dependent inhibitory effects | dose dependent inhibitory effects |
| COc1cc(CCC(=O)CC(=O)CCc2ccc(O)c(OC)c2)ccc1O [THC, Tetrahydrocurcumin] | 18 | 22 |  |  |
